According to PMC9693052, “Synthesis of 2-Aminopyrimidine Derivatives and Their Evaluation as β-Glucuronidase Inhibitors: In Vitro and In Silico Studies” (Molecules, 2022):

SMILES	melting point [°C]
CCCCOc1ccc(Nc2cc(Cl)nc(N)n2)cc1 [Compound 8, 6-Chloro-4-(N-(4-n-butoxy)phenyl)-2,4-pyrimidinediamine]	180 to 182
Nc1nc(Cl)cc(Nc2ccc(I)cc2)n1 [Compound 14, 6-Chloro-4-(N-(4-iodo)phenyl)-2,4-pyrimidinediamine]	250 to 252
CCc1ccc(Nc2cc(Cl)nc(N)n2)cc1 [Compound 22, 6-Chloro-4-(N-(4-ethyl)phenyl)-2,4-pyrimidinediamine]	172 to 174
Nc1nc(Cl)cc(N2CCN(c3ccccc3)CC2)n1 [Compound 25, 6-Chloro-6-(4-phenyl-1-piprazinyl)-2-pyrimidine amine]	200 to 202
CCCCc1ccc(Nc2cc(Cl)nc(N)n2)cc1 [Compound 23, 6-Chloro-4-(N-(4-n-butyl)phenyl)-2,4-pyrimidinediamine]	175 to 177
Nc1nc(Cl)cc(N2CCNCC2)n1 [Compound 24, 4-Chloro-6-(1-piperazinyl)-2-pyrimidinylamine]	> 300
CCCCCCCCOc1ccc(Nc2cc(Cl)nc(N)n2)cc1 [Compound 9]	185 to 187
Nc1nc(Cl)cc(Nc2ccccc2)n1 [Compound 1, 6-Chloro-4-(N-phenyl)-2,4-pyrimidinediamine]	175 to 177
Nc1nc(Cl)cc(Nc2ccc(Br)cc2)n1 [Compound 10, 6-Chloro-4-(N-(4-bromo)phenyl)-2,4-pyrimidinediamine]	190 to 192
COc1ccc(Nc2cc(Cl)nc(N)n2)cc1 [Compound 4, 6-Chloro-4-(N-(4-methoxy)phenyl)-2,4-pyrimidinediamine]	222 to 223
Nc1nc(Cl)cc(NCc2ccco2)n1 [Compound 27, 6-Chloro-4-(N-(furan-2-yl)methyl)-2,4-pyrimidinediamine]	140 to 142
Nc1nc(Cl)cc(NCc2cccnc2)n1 [Compound 26, 6-Chloro-4-(N-(3-pyridinyl)methyl)-2,4-pyrimidinediamine]	210 to 212

The next lines start with the values.

melting point [°C]	SMILES
178 to 180	COc1cccc(Nc2cc(Cl)nc(N)n2)c1 [Compound 3, 6-Chloro-4-(N-(3-methoxy)phenyl)-2,4-pyrimidinediamine]
245 to 247	COc1cc(Nc2cc(Cl)nc(N)n2)ccc1C [Compound 6, 6-Chloro-4-(N-(3-methoxy-4-methyl)phenyl)-2,4-pyrimidinediamine]
176 to 178	Cc1cccc(Nc2cc(Cl)nc(N)n2)c1C [Compound 17, 6-Chloro-4-(N-(2,3-dimethyl)phenyl)-2,4-pyrimidinediamine]
179 to 180	Cc1ccc(Nc2cc(Cl)nc(N)n2)cc1C [Compound 21, 6-Chloro-4-(N-(3,4-dimethyl)phenyl)-2,4-pyrimidinediamine]
177 to 179	Nc1nc(Cl)cc(Nc2cccc(Cl)c2)n1 [Compound 13, 6-Chloro-4-(N-(3-chloro)phenyl)-2,4-pyrimidinediamine]
173 to 175	Cc1ccc(C)c(Nc2cc(Cl)nc(N)n2)c1 [Compound 18, 6-Chloro-4-(N-(2,5-dimethyl)phenyl)-2,4-pyrimidinediamine]
175 to 177	Cc1ccc(Cl)cc1Nc1cc(Cl)nc(N)n1 [Compound 19, 6-Chloro-4-(N-(5-chloro-2-methyl)phenyl)-2,4-pyrimidinediamine]
182 to 184	Nc1nc(Cl)cc(Nc2ccc(Cl)cc2)n1 [Compound 12, 6-Chloro-4-(N-(4-chloro)phenyl)-2,4-pyrimidinediamine]
240 to 242	COc1ccccc1Nc1cc(Cl)nc(N)n1 [Compound 2, 6-Chloro-4-(N-(2-methoxy)phenyl)-2,4-pyrimidinediamine]
182 to 184	COc1ccc(OC)c(Nc2cc(Cl)nc(N)n2)c1 [Compound 5, 6-Chloro-4-(N-(2,5-dimethoxy)phenyl)-2,4-pyrimidinediamine]
170 to 172	CC(C)c1ccccc1Nc1cc(Cl)nc(N)n1 [Compound 16, 6-Chloro-4-(N-(2-isopropyl)phenyl)-2,4-pyrimidinediamine]
180 to 182	Nc1nc(Cl)cc(Nc2cccc(Br)c2)n1 [Compound 11, 6-Chloro-4-(N-(3-bromo)phenyl)-2,4-pyrimidinediamine]
178 to 180	Cc1ccc(Nc2cc(Cl)nc(N)n2)c(C)c1 [Compound 20, 6-Chloro-4-(N-(2,4-dimethyl)phenyl)-2,4-pyrimidinediamine]
